From patent US9586993B2, “CD44v6-derived peptides for treating pancreatic cancer” (AMCURE GMBH, priority 2012, dated 2017)
Entries after “also recorded” stand apart in the source; their conditions may differ.

How the values were obtained:
[1] = system: Met activation and downstream signaling to ERK; test: HGF-induced activation of Met and ERK in L3.6p1 cells (western blot); type: cell-based, human; conditions: HGF 10 ng/ml
Experimental: Serum-starved cells (24 hours) were induced with the growth factor HGF (10 ng/mL) at 37° C. for 5 minutes. Where indicated, the cells were treated with peptides (100 ng/ml) prior to induction at 37° C. for 10 minutes (100 ng/mL CD44v6 peptide or control peptide). Following the induction with HGF, cells were washed with ice-cold phosphate-buffered saline (PBS). To detect activated Met and Erk, cells were lysed in sodium dodecyl sulfate (SDS)-sample buffer containing 100 mM dithiothreitol (DTT), boiled and subjected to western blot analysis using antibodies against phospho-Met and ERK. The loading controls were performed on the same blot after stripping (62.5 mM Tris, pH 6.8, 2% SDS, 0.8% DTT) by probing with the Met respectively ERK antibody. Blots were stained using the enhanced chemiluminescence system (Thermo Fisher Scientific, Schwerte, Germany). Bands in western blot analysis were quantified with the program Image J (National Institutes of Health).
To expand the studies to human pancreatic tumors, the highly metastatic human pancreatic carcinoma cells L3.6p1 (Bruns, et al. Neoplasia (1999), 1(1):50-62) were investigated. These cells originate from the […] cells that have been passaged several times in the liver and the pancreas, a step that rendered them more and more metastatic. It was confirmed that Met is dependent on CD44v6 for its activation and signaling in these cells (FIG. 4A). The L3.6p1 cells were treated with HGF in the presence or absence of a human v6 peptide of SEQ ID NO: 2 or SEQ ID NO:6 and Met activation and downstream signaling to ERK was measured.

ErbB receptors = test: ErbB ligand-induced Erk-kinase phosphorylation in HT29 cells; type: cell-based, human; conditions: 100 ng/ml peptide; for inhibition of EGF-dependent Erk phosphorylation: 20 ng/ml EGF
Experimental: (§1) Serum-starved HT29 cells were pre-incubated for 5 min with 100 ng/ml of a CD44v6-specific peptide (human v6 14mer) or a control peptide. Afterwards the cells were induced with 20 ng/ml of various ErbB ligands as indicated. The cell lysates were resolved by SDS-PAGE. Western-blotting was used to detect ErbB ligands-induced Erk-kinase phosphorylation.
as §1, with “of” for “of a”, “(pep1=14mer, pep2=5mer)” for “(human v6 14mer)”, “EGF or TGFα and lysed.” for “various ErbB ligands as indicated.”, “EGF and TGFα induced” for “ErbB ligands-induced”
For this purpose HT29 cells were serum-starved for 24 hours and pre-treated with the v6-specific or a control peptide. They were then induced with the indicated ErbB ligands. Erk-kinase phosphorylation was used as a read-out for receptor activation. All ligands could activate the Erk-kinase.

Erk phosphorylation = test: EGF- and TGFα-induced Erk phosphorylation in MCF7 cells; type: cell-based, human
[2] = system: L3.6p1 pancreatic carcinoma cells; test: Human orthotopic model, L3.6p1 cells in the pancreas of nude mice; type: in vivo, mouse; conditions: for outgrowth / size of the primary tumor: 20 μg per injection i.p. three times per week for three weeks
Experimental: In the case of the human orthotopic model, L3.6p1 pancreatic carcinoma cells (passage 24-26) were suspended in Hank's balanced salt solution (Invitrogen, Karlsruhe, Germany) after trypsinization. The cells were injected orthotopically in the pancreas of male nude mice as described (Bruns C J et al. (1999) Neoplasia 1(1):50-62). Two groups of 15 mice each were injected i.p. 7 days later with either the human v6 peptide respectively rat control peptide (20 μg). For all experiments described and depicted herein either the rat 14mer control peptide or the human 14mer peptide were used. All experiments were then repeated with the rat 5mer control peptide or the human 5mer peptide (N-R-W-H-E, SEQ ID NO: 2). […] The injection was repeated three times per week for 21 days. Two days after the last treatment the animals were killed.
7 μm thick paraffin sections were deparaffinized and rehydrated. For P-Met staining antigen unmasking was achieved by boiling the slides in 1 mM EDTA pH 8.0 followed by incubation for 15 minutes at a sub-boiling temperature, for CD31 staining the sections were treated with Proteinase K (8 μg/ml) for 10 min at 37° C. For immunofluorescence staining of P-Met, unspecific binding was blocked with 5% goat serum (DAKO, Glostrup, Denmark) (diluted in 1×PBS/0.3% Triton X-100) for 60 minutes. In the case of immunohistochemistry, endogenous peroxidases were at first blocked with 3% H2O2 in PBS followed by incubation with biotin blocking system (Dako, Glostrup, Denmark) and then unspecific binding was inhibited by incubation with 5% FCS in PBS. The sections were incubated with the P-Met antibody (D26, dilution 1:50 in 1×PBS/1% BSA/0.3% Triton X-100), Met antibody (C-28, dilution 1:50), GFP antibody (sc-101525, dilution 1:50) or antibody (5 μg/ml) over night or VFF18 (5 μg/ml) o/n at 4° C. After washing in PBS the sections were incubated with Alexa Fluor R 546 goat anti-rabbit (in case of immunofluorescence P-Met and Met staining, dilution 1:500) or a biotinylated secondary antibody (for immunohistochemical stainings rabbit anti-rat antibody for VFF18 and CD31, goat anti-rabbit for P-Met, cleaved Caspase-3 and cleaved Caspase-8 and rabbit anti-mouse for GFP, dilution 1:500) for 45 minutes. For DAB (3,3′-diaminobenzidine) staining the sections were treated with a streptavidin-peroxidase conjugate (Dako, Glostrup, Denmark) and developed with DAB substrate system (3,3′-diaminobenzidine; Biozol, Eching, Germany) For immunofluorescence DAPI was used for nuclear staining.
The three CD44v6 specific compounds (v6 5mer, PEG840-v6 5mer and PEG2000-v6 5mer of human origin) and a control peptide were applied in three concentrations (2 μg, 20 μg, 200 μg per injection) three times per week i.p. for 4 weeks. One week before start of the treatment the L3.6p1 tumor cells were orthotopically implanted into nude mice.
Animals were implanted orthotopically with L3.6p1 cells. Tumor growth was allowed for one week before the treatment with the linear v6 14mer, the cyclic v6 8mer as well as the control peptide (rat v6 14mer) was started. All peptides were injected three times per week at a concentration of 0.2, 2 and 10 μg per injection for 3 weeks. At the end of the treatment animals were sacrificed.
A comparison of different CD44v6 peptide derivatives was performed in animals bearing a orthotopic L3.6p1 tumor. 10 groups of 5 animals each received a dose of 20 μg peptide per injection three times per week for 3 weeks with the compounds listed in Table 4. Three weeks after starting the treatment the animals were sacrificed and analyzed for macroscopic metastases and tumor volume.

[3] = system: L3.6p1 pancreatic carcinoma cells; test: as above; type: in vivo, mouse; conditions: dose reduction experiment, 0.2 to 20 μg per injection three times per week for 3 weeks

KEQWFGNRWHEGYR [human 14mer, human CD44v6 14mer peptide]
inhibition of HGF-induced activation (phosphorylation) of Met and ERK [1]: able to prevent activation of Met and of its downstream target Erk | inhibition of HGF-induced activation (phosphorylation) of Met and ERK ([1]; listed as SEQ ID NO:6): Phosphorylation of both Met and ERK was inhibited | inhibition of EGF-dependent Erk phosphorylation (ErbB receptors; listed as human v6 14mer): inhibited | inhibition of EGF-dependent Erk phosphorylation (ErbB receptors; listed as pep1): can be blocked | inhibition of ER-dependent Erk phosphorylation (ErbB receptors; 20 ng/ml ER): inhibited | inhibition of ErbB receptor induction via TGF-α, BC, Her, HB-EGF or AR (Erk phosphorylation) (ErbB receptors; 20 ng/ml ligand): completely independent of CD44v6 | Erk phosphorylation upon EGF treatment (Erk phosphorylation): blocking of Erk phosphorylation | Erk phosphorylation upon TGFα induction (Erk phosphorylation): not upon TGFα induction | metastasis formation (liver) ([2]; 0.2 μg per injection three times per week for 3 weeks): showed liver metastases but the average number of metastases per animal was reduced | metastasis formation (liver) ([2]; 2 μg per injection i.p. three times per week): showed liver metastases but the average number of metastases per animal was reduced | metastasis formation (liver) ([2]; 10 μg per injection three times per week for 3 weeks): complete inhibition of metastatic spreading | tumor angiogenesis (vessel number and vessel size, CD31 staining) ([2]; 20 μg i.p. three times per week): decreased angiogenesis | Met activation in the tumor (immunofluorescence for phospho-Met and Met) ([2]; 20 μg i.p. three times per week for three weeks): completely repressed Met activation | outgrowth / size of the primary tumor ([2]; start one week after implantation, listed as CD44v6 14mer): significant reduction in tumor growth | outgrowth / size of the primary tumor ([2]; start one week after implantation, listed as human v6 peptide): strongly repressed | outgrowth / size of the primary tumor ([2]; start one week after implantation, listed as v6 14mer): strongest reduction of tumor size | metastasis formation (liver) ([2]; 20 μg per injection i.p. three times per week, start one week after implantation): complete inhibition of metastasis | metastasis formation (liver) ([2]; 20 μg per injection i.p. three times per week, start one week after implantation, listed as human-specific peptide): completely inhibited metastasis formation within the liver | size / growth of the primary tumor [3]: significant decrease of the size of the primary tumor; also recorded: reduces growth of the primary tumor
